For experiment [1], the system named is single-strand annealing (SSA) in U2OS-SA cells. Kind of experiment: Cell-based DSB repair assay, SSA (SA-GFP reporter, FACS). The settings on record: 4 nM, 2 h pre-treatment, three days. As for the experimental part: (A) The effect of mitoxantrone (MX) on SSA and HR were studied with cell-based DSB repair assays. U2OS-SA and U2OS-DR cells were pre-treated with mitoxantrone for two hours before transfection of the SceI-expression plasmid. Then cells were grown in the presence of mitoxantrone for three days. DSB repair activities were determined by (B) FACS analysis. […] U2OS-SA cells were pre-treated with indicated concentrations of mitoxantrone for two hours, before I-SceI-expression vector transfection. After 72 hours incubation, the cells were harvested, and lysates were prepared. Lysate from each treatment was analyzed by 12% SDS-PAGE and the expression levels of I-SceI was determined by the western blot using anti-HA antibody. The p70 of RPA was used as a loading control. Ratios of I-SceI to p70 was obtained with ImageJ and are shown at the bottom of the image. C: control experiment without the addition of mitoxantrone. (D, E) Analysis of DSB repair activiies by western blots. […] At least three independent experiments were performed. Error bars represent standard deviations.

The subject of experiment [2] is BRCA2-revertant PE01 C4-2 cells (BRCA2+). The experiment is described as follows: Cell viability assay (PrestoBlue, 72 h), PE01 C4-2. The settings on record: Homo sapiens, C4-2, 72 h, read-out: EC50, cell viability.
The subject of experiment [3] is HCC1937 cells corrected with wild-type BRCA1 gene (BRCA1+). Kind of experiment: Cell viability assay (PrestoBlue, 72 h), HCC1937+BRCA1. The class given is cell-based. The settings on record: Homo sapiens, estimated from the graphs. As for the experimental part: Fig 2 BRCA1-deficient HCC1937 breast cancer cell line survival assay. BRCA1-deficient HCC1937 cells corrected with wild-type BRCA1 gene (BRCA1+; closed triangle), and with an empty vector (BRCA1-; closed circle) were examined. For each experiment (Figs 2–4), cell lines were treated with nine concentrations of (A) quinacrine, (B) mitoxantrone, and (C) doxorubicin in 96-well culture plates at 5x10^3 cell/well density. Each treatment point was made in sextuplicate. Treated cells were incubated for 72 hours at 37°C before assessing cell viability using PrestoBlue. Data were normalized to vehicle control. The experiment was repeated three times. Error bars indicate the standard deviation.
The HCC1937 cell line (a gift from Dr. Simon Powell Memorial Sloan Kettering (MSK), New York) was derived from a mammary gland primary ductal carcinoma at the early onset of a tumor. This TNBC patient carried a germline mutation in BRCA1, resulting in carboxy-terminal truncated protein and loss of the second BRCA1 allele. BRCA1-restored and empty vector cell lines were also obtained by transfection of a vector containing a full-length human BRCA1 cDNA or an empty vector, respectively. The HCC1937 cell lines were cultured as described.
Cells were seeded 5 x 10^3 cells per well in 96-well plates in a 90 μL volume per well one day before treatment. Cells in 96-well plates were incubated with increasing concentrations of the compound or vehicle control (1% DMSO) for 72 hours. Each treatment plate contained nine concentrations of a compound in sextuplicate. Growth inhibition was determined using PrestoBlue reagent (Life Technologies, #A13261). Fluorescent measurements were taken using a Spectramax M5 plate reader (MDS). To assess cells’ replication in the absence of compounds as a control, six wells on each plate were treated with vehicle to be read in triplicate at the initial treatment day (T0) and at 72-hour read (T100).

The inhibition is the percentage by which the read-out fell short of the control. Broadly, the EC50 is the concentration giving half of the maximal effect.

Turning to `O=C1c2c(O)ccc(O)c2C(=O)c2c(NCCNCCO)ccc(NCCNCCO)c21` [Mitoxantrone, mitoxantrone], in experiment [1], the inhibition at 0.004 µM was 72%. In addition, the EC50 is 400 nM in experiment [2] and over 5000 nM in experiment [3].

Values taken from publication PMC8009417, “Selective killing of homologous recombination-deficient cancer cell lines by inhibitors of the RPA:RAD52 protein-protein interaction” (PLoS ONE, 2021).
